This is an account of results in patent US9168286B2, “Methods and compositions for use in treatment of patients with autoantibody positive disease” (Human Genome Sciences, Inc., priority 2005, dated 2015).

One assay relates to B cells. The experiment in a line: B cell survival assay. The conditions noted are these: Pim-1−/−2−/− B cells, 100 ng/ml rhuNeutrokine-alpha, 4 days. It counts as cell-based, mouse. An excerpt: Mice: Pim-1^+/+2^+/+, Pim-1^−/−2^+/+, Pim-1^+/+2^−/− and Pim-1^−/−2^−/− mice were generated from Pim-1^+/−2^+/− stock of Paul Rothman Columbia University, New York, N.Y. C57BL/6 (B6) mice were from The Jackson Laboratory, Bar Harbor Me. or from the National Cancer Institute Production Program, NCI-Fredrick, Fredrick Md. Animals were bred and maintained at the Univ. of Pennsylvania, Harvard Medical School, or the Univ. of Massachusetts Medical School in accordance with Institutional Animal Care and Use Committee guidelines.
B cell purification: Splenic B cells were obtained by anti-thy1.2 and complement treatment of splenocytes followed by purification of resting B cells using a step wise percoll gradient and harvesting cells at the 60-70% interface. […]
Survival assays: B cells at 5×10^6/ml were cultured in 24-well tissue culture dishes in CM at 37° C. […] Survival was monitored daily by counting viable cells using trypan blue exclusion with each determination done in triplicate.
Rapamycin is a potent inhibitor of mTOR and a potent suppressor of B cell proliferation and differentiation. […] Viable cells were determined at day 4. […]

The subject of the next assay is Pim1 and Pim 2. Description: Western blot of Pim1 and Pim 2 expression in primary B cells. It counts as cell-based, mouse. The conditions noted are these: 2 days, 100 ng/ml rhuNeutrokine-alpha. On the procedure:
Antibodies and Western Blotting: Mouse anti-Pim 2 (1D12), Pim 1 (19F7), goat anti-actin (1-19), anti-mouse Ig, anti-rabbit Ig and anti-goat Ig coupled to HRP were obtained from Santa Cruz Biotechnology, Santa Cruz Calif. […] Rabbit anti-mouse Mcl-1 was purchased from Rockland, Wilmington Mass. Whole cell lysates were prepared by washing B cells in ice cold PBS and lysing in RIPA (150 mM NaCl, 1% NP-40, 0.5% sodium deoxycholate, 0.1% SDS, 50 mM Tris pH8.0) supplemented with protease inhibitors (minitab, Roche, Indianapolis Ind.) and phosphatase inhibitor cocktails I and II (Sigma). 10-50 ug of protein was resolved on 4-12% NuPage bis-tris polyacrylamide gels (Invitrogen, Carlsbad Calif.) and transferred to nitrocellulose. Blots were blocked with 3% BSA (Sigma, IgG free), 0.2% Tween-20 in PBS and incubated with primary antibody in the same buffer overnight at 4° C. Blots were washed with PBS-0.2% Tween-20, incubated with secondary antibody conjugated with HRP and developed using ECLplus (Amersham Bioscience, Piscataway N.J.). Blots were stripped for reprobing by incubation for 20 minutes at 65° C. in PBS supplemented with 1% SDS and […] β-mercaptoethanol. Blots were then washed and blocked as above. […]
On the technique in general: In western blotting, separated proteins are transferred to a membrane and probed.

The subject of another assay is Akt/mTOR pathway. The experiment in a line: Western blotting of Akt/mTOR pathway phosphorylation in B cells. Format: cell-based, mouse. On the procedure: Cell cultures: Purified B cells or CD23′ B cells were cultured in RPMI-1640 supplemented with 2-mercaptoethanol, MEM-non-essential amino acids, glutamine, penicillin and streptomycin (complete media, CM). For B cell survival and other assays recombinant human Neutrokine-alpha made at Human Genome Sciences, Rockville Md. was used at 50-100 ng/ml. FLAG-tagged human Neutrokine-alpha was from Dr. Randolph Noelle, Dartmouth Medical School. Murine Neutrokine-alpha was purchased from Alexis Biochemicals, San Diego Calif. and human interferon alpha (IFNα) from PBL Biomedical, Piscataway, N.J. Rapamycin was used at a final concentration of 50 nM, added to cultures from a stock dissolve in methanol. Control B cells in experiments using rapamycin were treated with methanol as a vehicle control. For kinetic assays B cells were prepared and refrigerated overnight at 4° C. 5-6×10^6 purified B cells per sample were spun onto 24-well plates that had been coated with 5 ug/ml monoclonal anti-FLAG M2 antibody (Sigma), washed, blocked with 1% BSA in PBS, followed by the addition of FLAG-tagged human Neutrokine-alpha 2 ug/well an hour prior to washing and cell addition. Unstimulated control B cells were those spun onto wells treated with anti-FLAG antibody alone. B cells were also activated by incubation with anti-murine IgM (5 ug/ml), anti-CD40 (0.5 ug/ml) or 100 ng/ml of recombinant human Neutrokine-alpha added to kinetic assay buffer (Hank's balanced salt solution plus 2% BSA).
Antibodies and Western Blotting: Mouse anti-Pim 2 (1D12), Pim 1 (19F7), goat anti-actin (1-19), anti-mouse Ig, anti-rabbit Ig and anti-goat Ig coupled to HRP were obtained from Santa Cruz Biotechnology, Santa Cruz Calif. […] Rabbit anti-mouse Mcl-1 was purchased from Rockland, Wilmington Mass. […]
Purified B cells were stimulated for the 0, 5, 20, 60 or 120 minutes with 100 ng/ml recombinant human or murine Neutrokine-alpha or anti-Ig (positive control) at 37° C. in pregassed medium. Lysates were prepared from iced samples and analyzed by Western Blot. […]

For assay [1], the system named is Neutrokine-alpha in monocytes and macrophages. The experiment in a line: Neutrokine-alpha expression in cytokine-treated monocytes and macrophages. Format: cell-based. The conditions noted are these: in vitro.
For a further assay, the system named is B cell. Description: Neutrokine-alpha mediated B cell proliferation with cytokines. Format: cell-based. On the procedure:
In an additional embodiment, an immunomodulatory agent is administered in combination with cytokines. Cytokines that may be administered with an immunomodulatory agent include, but are not limited to, GM-CSF, G-CSF, IL2, IL3, IL4, IL5, IL6, IL7, IL10, IL12, IL13, IL15, anti-CD40, CD40L, IFN-alpha, IFN-beta, IFN-gamma, TNF-alpha, and TNF-beta. In another embodiment, an immunomodulatory agent may be administered with any interleukin, including but not limited to, IL-1alpha, IL-1beta, IL-2, IL-3, IL-4, IL-5, IL-6, IL-7, IL-8, IL-9, IL-10, IL-11, IL-12, IL-13, IL-14, IL-15, IL-16, IL-17, IL-18, IL-19, IL-20, IL-21, and IL-22. In preferred embodiments, an immunomodulatory agent is administered in combination with IL4 and IL10. Both IL4 and IL10 have been observed by the inventors to enhance Neutrokine-alpha mediated B cell proliferation.

As for “Neutrokine-alpha: recombinant human Neutrokine-alpha made at Human Genome Sciences; member of the TNF family of ligands”, in the assay with B cells, the B cell survival entry is on record as “enhanced survival”. Also, the “Pim1 and Pim 2 expression” value in the assay on Pim1 and Pim 2 is reported as “upregulate”. In addition, the “mTOR activation (phosphorylation of p70 S6 kinase and 4E-BP1)” value in the assay on Akt/mTOR pathway (primary B cells) is given as “activation of mTOR”. Further, the “Akt phosphorylation (serine 473 and threonine 308)” value in the assay on Akt/mTOR pathway (primary B cells, 100 ng/ml, 0-120 minutes) was “activation of the Akt pathway”. Besides, the “phosphorylation of GSKβ, FOXO1 and FOXO3a” value in the assay on Akt/mTOR pathway (purified B cells, plate bound FLAG-tagged or soluble (100 ng/ml) Neutrokine-alpha) is on record as “phosphorylation of the Akt substrates”.

B1: IFN gamma: cytokine (protein, UniProt P01579 24-161, looked up)
Interferon gamma: QDPYVKEAENLKKYFNAGHSDVADNGTLFLGILKNWKEESDRKIMQSQIVSFYFKLFKNFKDDQSIQKSVETIKEDMNVKFFNSNKKKRDDFEKLTNYSVTDLNVQRKAIHELIQVMAELSPAAKTGKRKRSQMLFRG
Consider B1, for which the “cell surface expression of Neutrokine-alpha” value (“cell surface expression” below) in assay [1] is listed as “enhance”.

B2: IL-10: cytokine (protein, UniProt P22301 19-178, looked up)
Interleukin-10: SPGQGTQSENSCTHFPGNLPNMLRDLRDAFSRVKTFFQMKDQLDNLLLKESLLEDFKGYLGCQALSEMIQFYLEEVMPQAENQDPDIKAHVNSLGENLKTLRLRLRRCHRFLPCENKSKAVEQVKNAFNKLQEKGIYKAMSEFDIFINYIEAYMTMKIRN
For B2, the “cell surface expression” value in assay [1] is recorded as “enhance”. In addition, in the assay on B cell, the “Neutrokine-alpha mediated B cell proliferation” value is given as “enhance”.

B3: IL-4: cytokine (protein, UniProt P05112 25-153, looked up)
Interleukin-4: HKCDITLQEIIKTLNSLTEQKTLCTELTVTDIFAASKNTTEKETFCRAATVLRQFYSHHEKDTRCLGATAQQFHRHKQLIRFLKRLDRNLWGLAGLNSCPVKEANQSTLENFLERLKTIMREKYSKCSS
As to B3, the “cell surface expression” value in assay [1] is listed as “decreased”. For the same molecule, the “Neutrokine-alpha mediated B cell proliferation” value in the assay with B cell is listed as “enhance”.
